In patent US7115658B2 (priority 2002, dated 2006):

These compounds were tested against T1, Recombinant HCV polymerase (Hepatitis C virus genotype 1b, UniProt P26663) (assay: HCV Polymerase Inhibition Assay). Details: primer/template-directed transcription, 30 minutes at 30° C.; category symbol.
T1 construct: 2.5 pmoles (0.15 μg) HCV polymerase protein
Assay type: biochemical
Procedure, shortened: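 Recombinant genotype 1b polymerase (2.5 pmol) extended biotin-dG12 on poly(rC)300 with 1 μM GTP plus α-32P-GTP, pH 7.2, 30 min at 30 °C, 1% DMSO final; DE-filter-bound product counted. IC50 fitted from triplicate cpm, refitted with enzyme-concentration (30 nM) tight-binding equation when below 200 nM.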

T1 sequence (P26663 2420-3010): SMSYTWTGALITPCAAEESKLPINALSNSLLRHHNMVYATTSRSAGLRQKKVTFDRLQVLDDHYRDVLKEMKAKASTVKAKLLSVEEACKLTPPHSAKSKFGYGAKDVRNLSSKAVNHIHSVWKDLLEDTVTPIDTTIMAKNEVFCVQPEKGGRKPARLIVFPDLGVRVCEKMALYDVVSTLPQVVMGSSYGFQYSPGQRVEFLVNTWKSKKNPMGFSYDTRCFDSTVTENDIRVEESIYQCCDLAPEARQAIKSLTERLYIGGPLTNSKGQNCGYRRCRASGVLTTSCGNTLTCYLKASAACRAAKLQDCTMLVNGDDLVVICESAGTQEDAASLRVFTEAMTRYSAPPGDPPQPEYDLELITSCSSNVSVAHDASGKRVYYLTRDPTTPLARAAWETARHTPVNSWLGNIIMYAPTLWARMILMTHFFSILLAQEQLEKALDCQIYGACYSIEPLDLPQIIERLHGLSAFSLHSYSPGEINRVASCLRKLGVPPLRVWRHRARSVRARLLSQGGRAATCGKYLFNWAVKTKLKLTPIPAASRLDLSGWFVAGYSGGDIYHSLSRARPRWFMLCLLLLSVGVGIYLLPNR

Cc1cc(SC2=C(O)CC(CCc3ccc(O)cc3)(C3CCCC3)OC2=O)c(C(C)(C)C)cc1CO (centres unmarked) [Example 133, 3-(2-tert-butyl-4-hydroxymethyl-5-methyl-phenylsulfanyl)-6-cyclopentyl-4-hydroxy-6-[2-(4-hydroxy-phenyl)-ethyl]-5,6-dihydro-pyran-2-one] was tested. Which IC50 did it give?
The IC50 was under 1 µM.

How did the IC50 turn out when “6-[2-(3-Chloro-4-isopropoxy-phenyl)-ethyl]-6-cyclopentyl-4-hydroxy-3-(4-hydroxy-phenylsulfanyl)-5,6-dihydro-pyran-2-one [Example 130]” was run?
The IC50 was under 1 µM.

Which IC50 does the source give for COc1ccc(CCC2(C3CCCC3)CC(=O)CC(=O)O2)c(OC)c1 (centres unmarked) [Example 38, 6-Cyclopentyl-6-[2-(2,4-dimethoxy-phenyl)-ethyl]-dihydro-pyran-2,4-dione] here?
Its IC50 is 10 to 50 µM.

Which IC50 does the source give for CCOC(=O)c1cnc(SC2=C(O)CC(CCc3cc(Cl)c(OC)cc3OC)(C3CCCC3)OC2=O)[nH]1 (centres unmarked) [Example 100, Ethyl 2-({6-[2-(5-chloro-2,4-dimethoxyphenyl)ethyl]-6-cyclopentyl-4-hydroxy-2-oxo-5,6-dihydro-2H-pyran-3-yl}thio)-1H-imidazol-4-carboxylate] here?
Its IC50 is under 1 µM.

With COc1cc(OC)c(CCC2(C3CCCC3)CC(O)=C(Sc3cnccn3)C(=O)O2)cc1Cl (centres unmarked) [Example 108, 6-[2-(5-Chloro-2,4-dimethoxyphenyl)ethyl]-6-cyclopentyl-4-hydroxy-3-(pyrazin-2-ylthio)-5,6-dihydro-2H-pyran-2-one] as the compound, how does the IC50 read?
Its IC50 is under 1 µM.

For COc1ccc(CCC2(C3CCCC3)CC(=O)C(C(=O)Cc3ccccc3)C(=O)O2)cc1 (centres unmarked) [Example 171, 6-Cyclopentyl-6-[2-(4-methoxy-phenyl)-ethyl]-3-phenylacetyl-dihydro-pyran-2,4-dione], which IC50 is on record?
Its IC50 is 10 to 50 µM.

How did the IC50 turn out when Cc1cc(SC2=C(O)CC(C)(C)OC2=O)c(C(C)(C)C)cc1N [Example 89, 3-[(4-amino-2-tert-butyl-5-methylphenyl)thio]-4-hydroxy-6,6-dimethyl-5,6-dihydro-2H-pyran-2-one] was run?
Its IC50 is over 50 µM.

For Cc1cc(SC2=C(O)C[C@](CCc3cccc(O)c3)(C3CCCC3)OC2=O)c(C(C)(C)C)cc1CO [Example 153, (R)-3-(2-tert-butyl-4-hydroxymethyl-5-methyl-phenylsulfanyl)-6-cyclopentyl-4-hydroxy-6-[2-(3-hydroxy-phenyl)-ethyl]-5,6-dihydro-pyran-2-one], which IC50 is on record?
Its IC50 is under 1 µM.

COc1ccc(Oc2cccc(CCC3(C4CCCC4)CC(O)=CC(=O)O3)c2)cc1 (centres unmarked) [Example 45, 6-cyclopentyl-6-{2-[3-(4-methoxyphenoxy)phenyl]ethyl}-4-hydroxy-5,6-dihydro-2H-pyran-2-one] was tested. Which IC50 did it give?
The IC50 was 10 to 50 µM.

How did the IC50 turn out when CCOc1ccc(CCC2(C3CCCC3)CC(=O)CC(=O)O2)cc1F (centres unmarked) [Example 71, 6-Cyclopentyl-6-[2-(4-ethoxy-3-fluoro-phenyl)-ethyl]-dihydro-pyran-2,4-dione] was run?
Its IC50 is under 1 µM.

With COc1cccc(CC2C(=O)CC(CCc3ccc(OC)cc3OC)(C3CCCC3)OC2=O)c1 (centres unmarked) [Example 162, 6-Cyclopentyl-6-[2-(2,4-dimethoxy-phenyl)-ethyl]-3-(3-methoxy-benzyl)-dihydro-pyran-2,4-dione] as the compound, how does the IC50 read?
Its IC50 is 1 to 10 µM.

COc1ccc(CCC2(C3CCCC3)CC(O)=C(Sc3nc[nH]n3)C(=O)O2)cc1Cl (centres unmarked) [Example 124, 6-[2-(3-Chloro-4-methoxy-phenyl)-ethyl]-6-cyclopentyl-4-hydroxy-3-(1 H[1,2,4]triazol-3-ylsulfanyl)-5,6-dihydro-pyran-2-one] was tested. Which IC50 did it give?
Its IC50 is under 1 µM.

How did the IC50 turn out when COc1ccc(CCC2(C3CCCC3)CC(=O)C(C(C)=O)C(=O)O2)cc1 (centres unmarked) [Example 168, 3-Acetyl-6-cyclopentyl-6-[2-(4-methoxy-phenyl)-ethyl]-dihydro-pyran-2,4-dione] was run?
The IC50 was 10 to 50 µM.

COc1ccc(CCC2(C3CCCC3)CC(O)=C(Sc3nc(C)c(CC(=O)O)s3)C(=O)O2)cc1 (centres unmarked) [Example 112, [2-({6-Cyclopentyl-4-hydroxy-6-[2-(4-methoxyphenyl)ethyl]-2-oxo-5,6-dihydro-2H-pyran-3-yl}thio)-4-methyl-1,3-thiazol-5-yl]acetic acid] was tested. Which IC50 did it give?
Its IC50 is under 1 µM.
